Earlier results on 1 compound are cited in US6090828A, “5-aryleheteroarylalkyl-1,3,5-trisubstituted-1,2,4-triazole compounds for treatment of circulatory disorders” (priority 1997, dated 2000).

SMILES strings stand for the structures.

The subject of the series is angiotensin II receptor. As to conditions: background statement; cited from earlier work.

Take `CNCC(=O)N[C@@H](CCCN=C(N)N)C(=O)N[C@H](C(=O)N[C@@H](Cc1ccc(O)cc1)C(=O)N[C@H](C(=O)N[C@@H](Cc1cnc[nH]1)C(=O)N1CCC[C@H]1C(=O)N[C@@H](C)C(=O)O)C(C)C)C(C)C` [Saralasin]: the residual agonist activity result is on record as “significant residual agonist activity”.
